These results are taken from patent publication US20250152675A1, “I-TYPE RECOMBINANT COLLAGEN WITH HIGH TRANSDERMAL ABSORBABILITY, AND USE THEREOF” (XI'AN GIANT BIOGENE TECHNOLOLGY CO., LTD, priority 2022, published 2025).

Residues, ends and D or L forms follow the SMILES beside them.

This data set can be described thus: Transdermal penetration through ex vivo mouse skin in a single-chamber diffusion cell, content by BCA kit. Format: in vitro ADME, Kunming mice. Conditions: collagen peptide 5 mg/ml in 0.9% NaCl, diffusion area 2.0 cm^2, 37.5° C. As for the experimental part:
1. Preparation of Mouse Skin Ex Vivo 10 Kunming mice of 20 to 22 g with half male and half […] were used in the experiment. After the mice were killed, the hairs on the abdomen were removed. Then the skin on the hair-removed area was peeled off, stripped of fat and tendons, and rinsed repeatedly with distilled water. After being washed, the mouse skins were rinsed with normal saline, then treated with 10% glycerol, and stored at −20° C. for use (use up within 7 days).
Single-chamber diffusion cell: The effective diffusion area of the diffusion cell is 2.0 cm^2, the volume of the receiving cell is 14 ml, the length of the custom-made stirrer is 1.4 cm, and the receiving solution is 0.9% NaCl solution.
The stored mouse skin was taken out, thawed, washed with normal saline, and sandwiched between the receiving chamber and the supplying chamber, with the medicated side facing the supplying chamber and the skin side facing the receiving chamber. The temperature of the water bath system was adjusted to 37.5° C., and the stirring speed was adjusted to 100 rpm/min. 0.9% NaCl solution pre-warmed at 37° C. was added to the receiving chamber and the air bubbles were exhausted, in order to reduce the interference, the inner surface of the mouse skin was firstly contacted with the receiving solution without medication and all the receiving solution was replaced. Then the 27 collagen peptides synthesized were prepared into 5 mg/ml solutions using 0.9% NaCl respectively, which were injected into the supplying chamber and firmly adhere to the mouse skin respectively. After 24 h, part of the receiving solution was absorbed with a syringe as the sample solution to determine the transdermal amount of collagen peptide.
The BCA kit method was used to determine the polypeptide content in the sample solution. […]
Turning to `CC(C)C[C@H](NC(=O)[C@H](CC(=O)O)NC(=O)CNC(=O)[C@@H]1CCCN1C(=O)[C@@H](NC(=O)CN)C(C)C)C(=O)NCC(=O)N[C@@H](C)C(=O)N1CCC[C@H]1C(=O)NCC(=O)N1CCC[C@H]1C(=O)N[C@@H](CO)C(=O)NCC(=O)N[C@@H](C)C(=O)N[C@@H](CCCNC(=N)N)C(=O)NCC(=O)N[C@@H](CCC(=O)O)C(=O)N[C@@H](CCCNC(=N)N)C(=O)NCC(=O)N[C@@H](Cc1ccccc1)C(=O)N1CCC[C@H]1C(=O)NCC(=O)N[C@@H](CCC(=O)O)C(=O)N[C@@H](CCCNC(=N)N)C(=O)NCC(=O)N[C@H](C(=O)N[C@@H](CCC(N)=O)C(=O)NCC(=O)N1CCC[C@H]1C(=O)N1CCC[C@H]1C(=O)NCC(=O)N1CCC[C@H]1C(=O)N[C@@H](C)C(=O)NCC(=O)N1CCC[C@H]1C(=O)N[C@@H](CCCNC(=N)N)C(=O)O)C(C)C` [compound 14] (H-GVPGDLGAPGPSGARGERGFPGERGVQGPPGPAGPR-OH; N-terminus and C-terminus assumed), the 24h penetration amount was 2045.62 µg.
`CSCC[C@H](NC(=O)[C@@H]1CCCN1C(=O)CNC(=O)[C@@H]1CCCN1C(=O)[C@@H]1CCCN1C(=O)CNC(=O)[C@H](CCCNC(=N)N)NC(=O)[C@H](CCC(=O)O)NC(=O)CNC(=O)[C@H](CO)NC(=O)[C@H](C)NC(=O)CNC(=O)[C@H](CO)NC(=O)[C@@H]1CCCN1C(=O)CNC(=O)[C@H](CCC(N)=O)NC(=O)[C@H](CCCCN)NC(=O)CNC(=O)[C@@H]1CCCN1C(=O)[C@H](CCC(=O)O)NC(=O)CNC(=O)[C@H](CO)NC(=O)[C@@H]1CCCN1C(=O)CNC(=O)[C@@H]1CCCN1C(=O)[C@H](CC(C)C)NC(=O)CNC(=O)[C@@H]1CCCN1C(=O)[C@H](Cc1ccccc1)NC(=O)CNC(=O)[C@H](CCCNC(=N)N)NC(=O)[C@H](CCC(=O)O)NC(=O)CN)C(=O)NCC(=O)N1CCC[C@H]1C(=O)N1CCC[C@H]1C(=O)O` [compound 21] (H-GERGFPGLPGPSGEPGKQGPSGASGERGPPGPMGPP-OH; N-terminus and C-terminus assumed) gave a 24h penetration amount of 2199.78 µg.
As for `CC(C)[C@H](NC(=O)[C@H](C)NC(=O)CNC(=O)[C@@H]1CCCN1C(=O)[C@@H]1CCCN1C(=O)CNC(=O)[C@@H]1CCCN1C(=O)[C@@H](NC(=O)CNC(=O)[C@H](CCCNC(=N)N)NC(=O)[C@H](CCC(=O)O)NC(=O)CNC(=O)[C@H](C)NC(=O)[C@H](CCCCN)NC(=O)CNC(=O)[C@@H]1CCCN1C(=O)[C@H](CCC(=O)O)NC(=O)CNC(=O)[C@H](C)NC(=O)[C@H](C)NC(=O)CNC(=O)[C@H](CCCCN)NC(=O)[C@@H]1CCCN1C(=O)CNC(=O)[C@@H]1CCCN1C(=O)[C@H](Cc1ccccc1)NC(=O)CN)C(C)C)C(=O)NCC(=O)N1CCC[C@H]1C(=O)N[C@@H](C)C(=O)NCC(=O)N[C@@H](CCCCN)C(=O)N[C@@H](CC(=O)O)C(=O)NCC(=O)N[C@@H](CCC(=O)O)C(=O)N[C@@H](C)C(=O)O` [compound 11] (H-GFPGPKGAAGEPGKAGERGVPGPPGAVGPAGKDGEA-OH; N-terminus and C-terminus assumed), the figure is 2576.34 µg; as for `CC(C)[C@H](NC(=O)CNC(=O)[C@H](CCCNC(=N)N)NC(=O)[C@H](CCC(=O)O)NC(=O)CNC(=O)[C@@H]1CCCN1C(=O)[C@H](Cc1ccccc1)NC(=O)CNC(=O)[C@H](CCCNC(=N)N)NC(=O)[C@H](CCC(=O)O)NC(=O)CNC(=O)[C@H](CCCNC(=N)N)NC(=O)[C@H](C)NC(=O)CNC(=O)[C@H](CO)NC(=O)[C@@H]1CCCN1C(=O)CNC(=O)[C@@H]1CCCN1C(=O)[C@H](C)NC(=O)CN)C(=O)N[C@@H](CCC(N)=O)C(=O)NCC(=O)N1CCC[C@H]1C(=O)N1CCC[C@H]1C(=O)NCC(=O)N1CCC[C@H]1C(=O)N[C@@H](C)C(=O)NCC(=O)N1CCC[C@H]1C(=O)N[C@@H](CCCNC(=N)N)C(=O)NCC(=O)N[C@@H](C)C(=O)N[C@@H](CC(N)=O)C(=O)NCC(=O)N[C@@H](C)C(=O)N1CCC[C@H]1C(=O)O` [compound 26] (H-GAPGPSGARGERGFPGERGVQGPPGPAGPRGANGAP-OH; N-terminus and C-terminus assumed), 2054.99 µg.
With `CC(C)C[C@H](NC(=O)[C@H](CC(=O)O)NC(=O)CNC(=O)[C@@H]1CCCN1C(=O)[C@@H](NC(=O)CNC(=O)[C@H](CCC(N)=O)NC(=O)[C@H](CCC(=O)O)NC(=O)CNC(=O)[C@@H]1CCCN1C(=O)[C@H](CCCCN)NC(=O)CNC(=O)[C@H](C)NC(=O)[C@H](CCC(=O)O)NC(=O)CNC(=O)[C@@H]1CCCN1C(=O)[C@@H]1CCCN1C(=O)CNC(=O)[C@H](C)NC(=O)[C@@H]1CCCN1C(=O)CNC(=O)[C@@H]1CCCN1C(=O)[C@H](CC(C)C)NC(=O)CN)C(C)C)C(=O)NCC(=O)N[C@@H](C)C(=O)N1CCC[C@H]1C(=O)NCC(=O)N1CCC[C@H]1C(=O)N[C@@H](CO)C(=O)NCC(=O)N[C@@H](C)C(=O)N[C@@H](CCCNC(=N)N)C(=O)NCC(=O)N[C@@H](CCC(=O)O)C(=O)N[C@@H](CCCNC(=N)N)C(=O)O` [compound 13] (H-GLPGPAGPPGEAGKPGEQGVPGDLGAPGPSGARGER-OH; N-terminus and C-terminus assumed), the 24h penetration amount amounted to 2098.04 µg.
Turning to `CC(C)C[C@H](NC(=O)[C@H](CC(=O)O)NC(=O)CNC(=O)[C@@H]1CCCN1C(=O)[C@@H](NC(=O)CNC(=O)[C@H](CCC(N)=O)NC(=O)[C@H](CCC(=O)O)NC(=O)CNC(=O)[C@@H]1CCCN1C(=O)[C@H](CCCCN)NC(=O)CNC(=O)[C@H](C)NC(=O)[C@H](CCC(=O)O)NC(=O)CNC(=O)[C@@H]1CCCN1C(=O)[C@@H]1CCCN1C(=O)CN)C(C)C)C(=O)NCC(=O)N[C@@H](C)C(=O)N1CCC[C@H]1C(=O)NCC(=O)N1CCC[C@H]1C(=O)N[C@@H](CO)C(=O)NCC(=O)N[C@@H](C)C(=O)N[C@@H](CCCNC(=N)N)C(=O)NCC(=O)N[C@@H](CCC(=O)O)C(=O)N[C@@H](CCCNC(=N)N)C(=O)NCC(=O)N[C@@H](Cc1ccccc1)C(=O)N1CCC[C@H]1C(=O)NCC(=O)N[C@@H](CCC(=O)O)C(=O)N[C@@H](CCCNC(=N)N)C(=O)O` [compound 25] (H-GPPGEAGKPGEQGVPGDLGAPGPSGARGERGFPGER-OH; N-terminus and C-terminus assumed), the 24h penetration amount is 2255.78 µg.
The same measure for `CSCC[C@H](NC(=O)[C@@H](NC(=O)CNC(=O)[C@H](C)NC(=O)[C@H](CCC(N)=O)NC(=O)CNC(=O)[C@H](CCCNC(=N)N)NC(=O)[C@H](C)NC(=O)CNC(=O)[C@@H]1CCCN1C(=O)[C@@H]1CCCN1C(=O)CNC(=O)[C@@H]1CCCN1C(=O)[C@@H]1CCCN1C(=O)CNC(=O)[C@@H]1CCCN1C(=O)[C@H](CCCNC(=N)N)NC(=O)CN)C(C)C)C(=O)NCC(=O)N[C@@H](Cc1ccccc1)C(=O)N1CCC[C@H]1C(=O)NCC(=O)N1CCC[C@H]1C(=O)N[C@@H](CCCCN)C(=O)NCC(=O)N[C@@H](C)C(=O)N[C@@H](C)C(=O)NCC(=O)N[C@@H](CCC(=O)O)C(=O)N1CCC[C@H]1C(=O)NCC(=O)N[C@@H](CCCCN)C(=O)N[C@@H](C)C(=O)NCC(=O)N[C@@H](CCC(=O)O)C(=O)N[C@@H](CCCNC(=N)N)C(=O)O` [compound 10] (H-GRPGPPGPPGARGQAGVMGFPGPKGAAGEPGKAGER-OH; N-terminus and C-terminus assumed): 2290.34 µg.
